For 17 compounds, remaining activity results are on record in patent publication US11912699B2, “Tau-protein targeting compounds and associated” (Arvinas Operations, Inc., priority 2019, dated 2024).

In the assay the target is T1, Tau P301L (Homo sapiens, UniProt P10636, P618L).
T1 construct: expressed in transfected cells
Put plainly: In vitro tau degradation assay in CHOK1 Tau P301L cells (sarkosyl insoluble tau, WES). It counts as cell-based. Particulars: CHO-K1; remaining tau protein in sarkosyl insoluble pellet; CHOK1 Tau P301L cells treated 48 hours with test compound at 1 μM, doxycycline removed for the last 24 hours; relative to DMSO doxycycline control; read-out: Tau Protein Degradation effect at 1 μM. Summed up: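 Sarkosyl-insoluble pellet tau, measured by WES capillary immunoassay (Tau1 antibody), was scored against DMSO doxycycline control as ≤50% or >50% remaining. Cells were CHOK1 clone D1 expressing Tau P301L under doxycycline (1 μg/ml), given 1 μM compound for 48 h with doxycycline withdrawn during the last 24 h.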

Counter-ions that a name gives are not always drawn. Where only a bound is given, the exact number is not on record here.

T1 sequence (P10636 1-441 isoform P10636-8 P301L): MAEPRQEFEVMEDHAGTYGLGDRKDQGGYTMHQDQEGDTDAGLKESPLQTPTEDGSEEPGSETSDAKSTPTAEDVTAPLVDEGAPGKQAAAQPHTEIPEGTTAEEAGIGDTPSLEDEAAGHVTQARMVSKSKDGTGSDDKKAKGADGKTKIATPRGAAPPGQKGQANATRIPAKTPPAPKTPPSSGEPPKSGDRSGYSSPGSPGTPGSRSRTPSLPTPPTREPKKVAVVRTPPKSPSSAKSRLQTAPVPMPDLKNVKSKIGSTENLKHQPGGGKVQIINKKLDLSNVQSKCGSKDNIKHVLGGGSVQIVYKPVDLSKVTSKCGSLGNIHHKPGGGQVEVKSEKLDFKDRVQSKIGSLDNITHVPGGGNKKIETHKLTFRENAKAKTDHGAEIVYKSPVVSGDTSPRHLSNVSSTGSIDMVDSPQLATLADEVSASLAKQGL

In the case of `Cn1c2ccncc2c2ccc(-c3ccc(O[C@H]4C[C@H](OC5CCN(c6ccc7c(c6)C(=O)N(C6CCC(=O)NC6=O)C7=O)CC5)C4)nc3)cc21` (some centres unmarked) [Compound 493, 2-(2,6-dioxopiperidin-3-yl)-5-(4-((1r,3r)-3-((5-(5-methyl-5H-pyrido[4,3-b]indol-7-yl)pyridin-2-yl)oxy)cyclobutoxy)piperidin-1-yl) isoindoline-1,3-dione], the remaining activity at 1 µM is below 50%. Take `O=C1CCC(N2C(=O)c3ccc(N4CCN(CC5CCN(c6ncc(-c7ccc8c9cnccc9n(C(F)F)c8c7)cc6C(F)(F)F)CC5)CC4)cc3C2=O)C(=O)N1` (centres unmarked) [Compound 494, 5-(4-((1-(5-(5-(difluoromethyl)-5H-pyrido[4,3-b]indol-7-yl)-3-(trifluoromethyl)pyridin-2-yl)piperidin-4-yl)methyl)piperazin-1-yl)-2-(2,6-dioxopiperidin-3-yl)isoindoline-1,3-dione]: the remaining activity at 1 µM is below 50%.

In the case of `Cn1c2ccncc2c2ccc(C3CCN(CCC4CCN(c5ccc6c(c5)C(=O)N(C5CCC(=O)NC5=O)C6=O)CC4)CC3)cc21` (centres unmarked) [Compound 498, 2-(2,6-dioxopiperidin-3-yl)-5-(4-(2-(4-(5-methyl-5H-pyrido[4,3-b]indol-7-yl)piperidin-1-yl)ethyl)piperidin-1-yl)isoindoline-1,3-dione], the remaining activity at 1 µM is below 50%. For the compound `Cn1c2ccncc2c2ccc(C3CCN(CCC4CCN(CC5CCN(c6ccc7c(c6)C(=O)N(C6CCC(=O)NC6=O)C7=O)CC5)CC4)CC3)cc21` (centres unmarked) [Compound 502, 2-(2,6-dioxopiperidin-3-yl)-5-(4-((4-(2-(4-(5-methyl-5H-pyrido[4,3-b]indol-7-yl)piperidin-1-yl)ethyl)piperidin-1-yl)methyl)piperidin-1-yl)isoindoline-1,3-dione], the remaining activity at 1 µM was below 50%. As to `Cn1c2ccncc2c2ccc(-c3ccc(C4CCN(CCC5CCN(c6ccc7c(c6)C(=O)N(C6CCC(=O)NC6=O)C7=O)CC5)CC4)nc3)cc21` (centres unmarked) [Compound 508, 2-(2,6-dioxopiperidin-3-yl)-5-(4-(2-(4-(5-(5-methyl-5H-pyrido[4,3-b]indol-7-yl)pyridin-2-yl)piperidin-1-yl)ethyl)piperidin-1-yl)isoindoline-1,3-dione], the remaining activity at 1 µM was below 50%.

For the compound `CN(C)c1cccc2cnc(-n3ccc4cc(N5CCC(CCN6CCN(c7ccc8c(c7)C(=O)N(C7CCC(=O)NC7=O)C8=O)CC6)CC5)ncc43)cc12` (centres unmarked) [Compound 512, 5-(4-(2-(1-(1-(5-(dimethylamino)iso-quinolin-3-yl)-1H-pyrrolo[2,3-c]pyridin-5-yl)piperidin-4-yl)ethyl)piperazin-1-yl)-2-(2,6-dioxopiperidin-3-yl)isoindoline-1,3-dione], the remaining activity at 1 µM is below 50%.

Turning to `O=C1CCC(N2C(=O)c3ccc(N4CCN(CCC5CCN(c6ncc(-c7ccc8c9cnccc9n(C(F)F)c8c7)cn6)CC5)CC4)cc3C2=O)C(=O)N1` (centres unmarked) [Compound 514, 5-(4-(2-(1-(5-(5-(difluoromethyl)-5H-pyrido[4,3-b]indol-7-yl)pyrimidin-2-yl)piperidin-4-yl)ethyl)piperazin-1-yl)-2-(2,6-dioxopiperidin-3-yl)isoindoline-1,3-dione], the remaining activity at 1 µM is below 50%. Take `Cn1c2ccncc2c2ccc(C3CCN([C@H]4C[C@@H](OC5CCN(CCOc6ccc7c(c6)C(=O)N(C6CCC(=O)NC6=O)C7=O)CC5)C4)CC3)cc21` (some centres unmarked) [Compound 515, 2-(2,6-dioxopiperidin-3-yl)-5-(2-(4-((1s,3s)-3-(4-(5-methyl-5H-pyrido[4,3-b]indol-7-yl)piperidin-1-yl)cyclobutoxy)piperidin-1-yl)ethoxy) isoindoline-1,3-dione]: the remaining activity at 1 µM is below 50%. Consider `O=C1CCC(N2C(=O)c3ccc(N4CCN(CCC5CCN(CCCn6c7ccccc7c7cnccc76)CC5)CC4)cc3C2=O)C(=O)N1` (centres unmarked) [Compound 527, 5-(4-(2-(1-(3-(5H-pyrido[4,3-b]indol-5-yl)propyl)piperidin-4-yl)ethyl)piperazin-1-yl)-2-(2,6-dioxopiperidin-3-yl)isoindoline-1,3-dione], for which the remaining activity at 1 µM was below 50%. Then `O=C1CCC(N2C(=O)c3ccc(N4CCN(CCC5CCN(c6ncc(-c7ccc8c9cnccc9n(C(F)F)c8c7)cc6F)CC5)CC4)cc3C2=O)C(=O)N1` (centres unmarked) [Compound 532, 5-[4-[2-[1-[5-[5-(difluoromethyl)pyrido[4,3-b]indol-7-yl]-3-fluoro-2-pyridyl]-4-piperidyl]ethyl]piperazin-1-yl]-2-(2,6-dioxo-3-piperidyl)isoindoline-1,3-dione trifluoroacetate], with below 50%; and `Cn1c2ccncc2c2ccc(C#CC3CCN(CCN4CCN(c5ccc6c(c5)C(=O)N(C5CCC(=O)NC5=O)C6=O)CC4)CC3)cc21` (centres unmarked) [Compound 533, 2-(2,6-dioxopiperidin-3-yl)-5-(4-(2-(4-((5-methyl-5H-pyrido[4,3-b]indol-7-yl)ethynyl)piperidin-1-yl)ethyl)piperazin-1-yl)isoindoline-1,3-dione], with below 50%. Then `O=C1CCC(N2Cc3cc(N4CCN(CCC5CCN(c6ncc(-c7ccc8c9cnccc9n(C(F)F)c8c7)cc6C(F)(F)F)CC5)CC4)ccc3C2=O)C(=O)N1` (centres unmarked) [Compound 543, 3-(5-(4-(2-(1-(5-(5-(difluoromethyl)-5H-pyrido[4,3-b]indol-7-yl)-3-(trifluoromethyl)pyridin-2-yl)piperidin-4-yl)ethyl)piperazin-1-yl)-1-oxoisoindolin-2-yl)piperidine-2,6-dione], with below 50%; and `Cc1ccc(-n2ccc3cc(N4CCC(CCN5CCN(c6ccc7c(c6)C(=O)N(C6CCC(=O)NC6=O)C7=O)CC5)CC4)ncc32)nc1` (centres unmarked) [Compound 555, 2-(2,6-dioxopiperidin-3-yl)-5-(4-(2-(1-(1-(5-methylpyridin-2-yl)-1H-pyrrolo[2,3-c]pyridin-5-yl)piperidin-4-yl)ethyl)piperazin-1-yl)isoindoline-1,3-dione], with below 50%. With `Cc1ccc(-c2cn3ccc(N4CCC(CCN5CCN(c6ccc7c(c6)C(=O)N(C6CCC(=O)NC6=O)C7=O)CC5)CC4)cc3n2)cc1` (centres unmarked) [Compound 558, 2-(2,6-dioxopiperidin-3-yl)-5-(4-(2-(1-(2-(p-tolyl)imidazo[1,2-a]pyridin-7-yl)piperidin-4-yl)ethyl)piperazin-1-yl)isoindoline-1,3-dione], the remaining activity at 1 µM is below 50%.

Take `Cc1cc2c(cn1)c1ccc(-c3cnc(N4CCC(CCN5CCN(c6ccc7c(c6)C(=O)N(C6CCC(=O)NC6=O)C7=O)CC5)CC4)c(F)c3)cc1n2C` (centres unmarked) [Compound 561, 5-(4-(2-(1-(5-(3,5-dimethyl-5H-pyrido[4,3-b]indol-7-yl)-3-fluoropyridin-2-yl)piperidin-4-yl)ethyl)piperazin-1-yl)-2-(2,6-dioxopiperidin-3-yl)isoindoline-1,3-dione]: the remaining activity at 1 µM was below 50%.

Turning to `O=C1CCC(N2C(=O)c3ccc(N4CCN(CC#CC5CCN(c6ccc7c8cnccc8n(C(F)F)c7c6)CC5)CC4)cc3C2=O)C(=O)N1` (centres unmarked) [Compound 565, formate], the remaining activity at 1 µM is below 50%. For `O=C1CCC(N2C(=O)c3ccc(C#CCN4CCN(CCC5CCN(c6ncc(-c7ccc8c9cnccc9n(C(F)F)c8c7)cc6F)CC5)CC4)cc3C2=O)C(=O)N1` (centres unmarked) [Compound 566, 5-(3-(4-(2-(1-(5-(5-(difluoromethyl)-5H-pyrido[4,3-b]indol-7-yl)-3-fluoropyridin-2-yl)piperidin-4-yl)ethyl)piperazin-1-yl)prop-1-yn-1-yl)-2-(2,6-dioxopiperidin-3-yl)isoindoline-1,3-dione], the remaining activity at 1 µM is below 50%.
